Values quoted from earlier work as cited in patent publication US10029019B1, “Method for mitigating osteoporosis using metallic gold cluster molecules” (priority 2017, dated 2018).

What was measured:
[1] = tested on: RANKL-induced NF-κβ activation; conditions: RAW 264.7 monocytes during osteoclast differentiation
BMMs = conditions: up to 200 μM in BMMs in vitro

Row | Structure (SMILES) | formation of RAW264.7 precursor cells into osteoclasts (RAW264.7 cells) | other results
1 | O=C(/C=C/c1ccc(O)c(O)c1)OCCc1ccccc1 [Caffeic Acid Phenethyl Ester (CAPE), Caffeic Acid Phenethyl Ester] | – | RANKL-induced NF-κβ activation [1]: inhibit
2 | [Cl][La]([Cl])[Cl] [Lanthianum Chloride] | – | reduction of gene expression that leads towards osteoclastic differentiation (BMMs): 50%
3 | O=C1c2c(O)cccc2C([C@@H]2O[C@H](CO)[C@@H](O)[C@H](O)[C@H]2O)c2cc(CO)cc(O)c21 (stereo partly shown) [Aloin] | prevent osteoclast differentiation | –
4 | [HH] [Hydrogen molecules] | inhibit | –
